Data: paper PMC8011081, “Bio-guided isolation of anti-leishmanial natural products from Diospyros gracilescens L. (Ebenaceae)” (BMC Complementary Medicine and Therapies, 2021)
Like-named read-outs stand apart in the source and are kept apart here.

How the values were obtained:
[1] = tested on: L. donovani promastigotes (MHOM/SD/62/1S); assay: Inhibitory assay against L. donovani promastigotes (resazurin colorimetric assay); type: cell-based; details: Leishmania donovani, mean ± SD, triplicate
Description: The cryopreserved promastigote form of L. donovani (1S (MHOM/SD/62/1S) was obtained from Bei Resources (https://www.beiresources.org/) and is routinely cultured at the Antimicrobial and Biocontrol Agents Unit, University of Yaoundé I, in Medium 199 (Sigma, Darmstadt, Germany) supplemented with 10% Heat-Inactivated fetal Bovine Serum (HIFBS) (Sigma, Darmstadt, Germany) and 100 IU/mL penicillin and 100 μg/mL streptomycin. The culture was maintained in 75 Cm^2 cell culture flask at 28 °C and checked for growth daily and sub-cultured everyday 72 h.
The stock solutions were prepared by dissolving each sample in 100% dimethyl sulfoxide (DMSO) and subsequently diluted serially in non-supplemented culture medium. […] The viability rate of promastigotes positively correlated with the amount of pink resorufin that was produced through the reduction of blue resazurin by the dehydrogenase enzymes in the inner mitochondrial membrane of the living parasites. Briefly, promastigotes from a logarithmic phase culture (4 × 10^5 cells/mL; 90 μL) were seeded in 96-well microtiter plates and were treated with 10 μl of inhibitors at different triplicate concentrations ranging 100 μg/mL-0.16 μg/mL for extracts and fractions and 50 μg/mL-0.08 μg/mL for compounds. The final concentration of DMSO in each well was not higher than 1%. Plates were incubated for 28 h at 28 °C, followed by the addition of 1 mg/mL resazurin (Sigma, Darmstadt, Germany). […] After an additional incubation for 44 h, plates were then read on a Magelan Infinite M200 fluorescence multi-well plate reader (Tecan, Männedorf, Switzerland) at an excitation and emission wave lengths of 530 and 590 nm respectively.

L. donovani amastigotes = assay: Inhibitory assay against intracellular L. donovani amastigotes in Raw 264.7 macrophages (resazurin); type: cell-based; details: Leishmania donovani, RAW264.7, isolated compounds, mean ± SD
Description: The effect of plant isolates against the intracellular amastigote form of L. donovani was evaluated essentially as described by Jain et al. with some modifications. Briefly, macrophage Raw 264.7 cells ([…]) were seeded in 96 well plates and incubated for 6 h at 37 °C under 5% CO2 for adhesion of the cells. Afterwards, the non-adherent cells were washed-out with sterile PBS. The adherent Raw 264.7 cells were infected with metacyclic promastigotes (4 × 10^5 cells) at an infection ratio of 1:10 macrophage: parasites and incubated for 24 h at 37 °C under 5% CO2 in order to allow infection of macrophages by metacyclic promastigotes. Thereafter, the overlying medium was removed, and the monolayer cells with internalized amastigotes were carefully washed four times with PBS to remove free parasites. Freshly prepared M199 medium containing 10% FBS and the test extracts were added in triplicate to the infected cells at serially diluted concentrations and incubated for 48 h at 37 °C under 5% CO2. After incubation, 0.05% Sodium dodecyl sulfate (SDS) was added in each well for 30 s for controlled lysis followed by M199 with 10% FBS as macrophage lysis stopper. Resazurin reagent (250 μg/mL) was thereafter added in each well and the plates were incubated for 24 h followed by fluorescence recording at λexcitation = 530 nm and λemission = 590 nm using a Tecan Infinite M200 microplate reader (Tecan). Inhibition percentages were calculated using Microsoft Excel Software and median inhibitory concentration (IC50) obtained from dose-response curves using GraphPad Prism 5.0. Software.

in vitro = details: mouse
Description: The cytotoxicity profile of extracts, fractions and compounds was assessed using the Alamar blue assay against Raw 264.7 cells duly cultivated in complete Dulbecco’s Modified Eagle’s Medium (DMEM) containing 13.5 g/L DMEM (Sigma Aldrich), 10% fetal Bovine Serum (Sigma Aldrich), 0.2% sodium bicarbonate (w/v) (Sigma, Darmstadt, Germany) and 50 μg/mL gentamycin (Sigma Aldrich). Globally, macrophages were seeded into 96-wells cell-culture flat-bottomed plates at a density of 10^4 cells in final volume of 100 μL of complete medium/well and incubated for 24 h at 37 °C, 5% CO2, 70% RH in a ICO 105 memmert incubator (memmert, Schwabach, Germany) to allow cell adhesion. Ten μL of each serially diluted test sample were added in triplicate wells and assay plates were then incubated for 48 h in the same experimental conditions. Growth control consisted of 0.1%DMSO (100% growth) and positive control of podophyllotoxin (Sigma, Darmstadt, Germany) at 20 μM. Cell proliferation was checked by adding 10 μL of a stock solution of resazurin (0.15 mg/mL in sterile PBS) to each well followed by plates incubation during 4 h. Fluorescence was then read on a Tecan Infinite M200 fluorescence multi-well plate reader at an excitation/emission of 530/590 nm. […] Selectivity indices (CC50/IC50, defining the balance between cytotoxicity and antileishmanial activity) were calculated for each test substance.

[2] = tested on: L. donovani promastigotes; assay: Concentration/time inhibition (kill) kinetics, trypan blue counting; type: cell-based, Leishmania donovani
Description: The number of viable parasites was determined after every 24 h over 120 h by staining with trypan blue. Quantification of viable parasites was achieved by counting the parasites with clear cytoplasm (non-stained) using a Neubauer hemocytometer with cover slips. Three independent experiments were performed for each sample.

[3] = isolated compounds, read-out: IC50 (Promastigotes)

SMILES | IC50 [1, 3] | IC50 (L. donovani amastigotes) | CC50 (in vitro) | IC50 ([1]; crude extracts, H20: EtOH, read-out: Promastigote of L. donovani (MHOM/SD/62/1S) IC50 ± SD) | IC50 ([1]; trunk extract and fractions, read-out: IC50 (Promastigotes)) | Effect on promastigote replication / growth ([2]; 0.5x IC50, IC50, 2x IC50, 4x IC50, viable parasites counted every 24 h) | Cidal effect ([2]; all tested concentrations, exposure up to 120 h) | CC50 at 48 h (in vitro; Raw 264.7 cells (macrophages)) | CC50 at 48 h (in vitro)
OC1CC(O)C(O)C(O)C1O (centres unmarked) [1-deoxyinositol (7), 1-deoxyinositol] | 241.71 ± 0.16 µM | 120 ± 0.18 µM | > 1220 µM |  |  |  |  |  | 
C[C@@H]1[C@H](O)[C@@H](C)/C=C/C=C/C=C/C=C/C=C/C=C/C=C/[C@H](O[C@@H]2O[C@H](C)[C@@H](O)[C@H](N)[C@@H]2O)C[C@@H]2O[C@](O)(C[C@@H](O)C[C@@H](O)[C@H](O)CC[C@@H](O)C[C@@H](O)CC(=O)O[C@H]1C)C[C@H](O)[C@H]2C(=O)O [Amphotericin B, reference compound] | 0.37 ± 0.22 µM |  |  | 0.34 ± 0.22 µg/mL | 0.34 ± 0.22 µg/mL | significant reduction in promastigote replication after 24 h | no evidence of cidal effect |  | 
C=C(C)[C@@H]1CC[C@]2(C(=O)O)CC[C@]3(C)[C@H](CC[C@@H]4[C@@]5(C)CC[C@H](O)C(C)(C)[C@@H]5CC[C@]43C)[C@@H]12 [Betulinic acid (3), Betulinic acid] | 13.69 ± 0.07 µM | 18.46 ± 0.01 µM | 82.39 ± 0.09 µM |  |  |  |  |  | 
C=C(C)[C@@H]1CC[C@]2(C)CC[C@]3(C)[C@H](CC[C@@H]4[C@@]5(C)CC[C@H](O)C(C)(C)[C@@H]5CC[C@]43C)[C@@H]12 [Lupeol (1), Lupeol] | 23.22 ± 0.08 µM | 46.7 ± 0.65 µM |  |  |  |  |  | 19.3 ± 0.3 µM | 
CCC(CCC(C)C1CCC2C3CC=C4CC(OC5OC(CO)C(O)C(O)C5O)CCC4(C)C3CCC12C)C(C)C [β-sitosterol glucoside (6), β-sitosterol 3-O-D-glucopyranoside] | 49.34 ± 0.12 µM | 32 ± 0.22 µM |  |  |  |  |  |  | 28.6 ± 0.07 µM
